The record followed here is ChEMBL document CHEMBL1141145, “A chiral benzoquinolizine-2-carboxylic acid arginine salt active against vancomycin-resistant Staphylococcus aureus” (J Med Chem, 2005).

For series [1], the system named is Staphylococcus aureus. Kind of series: Minimum inhibitory concentration against methicillin susceptible Staphylococcus aureus in the absence of esterase action. The format is functional.
For series [2], the system named is Mus musculus. Kind of series: Protection of mice infected with MRSA-32 cell suspension after s.c. administration of compound. The note with it: MRSA-32, sc. The format is functional.
The test system of series [3] is Mus musculus. The experiment in a line: Protection of mice infected with MRSA-32 cell suspension after oral administration of compound. Format: functional. Particulars: Mus musculus, MRSA-32, po; read-out: ED50.
Series [4] has as its system Staphylococcus aureus. Kind of series: Minimum inhibitory concentration against Staphylococcus aureus gyrA/grlA double mutant. The format is functional.
For series [5], the target named is DNA topoisomerase 4 subunit A (Staphylococcus aureus) (UniProt P0C1U9).
The target of series [6] is DNA topoisomerase 4 subunit A (Staphylococcus aureus, UniProt P0C1U9).
Series [7] deals with Staphylococcus aureus. Kind of series: Minimum inhibitory concentration against Staphylococcus aureus ISP 794 (wild type). Format: functional.
In series [8] the test system is Staphylococcus aureus. The experiment in a line: Minimum inhibitory concentration against Staphylococcus aureus grlA mutant. Format: functional.
The target of the next series is DNA gyrase (Staphylococcus aureus, UniProt P0A0K8+P20831).
Series [9] relates to Staphylococcus aureus. The experiment in a line: Minimum inhibitory concentration against Staphylococcus aureus gyrA mutant. The format is functional.
In series [10] the target is T1, DNA gyrase (Staphylococcus aureus) (UniProt P0A0K8+P20831).
The target in series [11] is T1, DNA gyrase (Staphylococcus aureus). The source holds these as a separate data set.
Series [12] deals with Staphylococcus haemolyticus. Kind of series: Minimum inhibitory concentration against Staphylococcus haemolyticus ATCC 29970. The format is functional.
A further series relates to Streptococcus agalactiae. The experiment in a line: Minimum inhibitory concentration against Streptococcus agalactiae ATCC 13813. The format is functional.
In series [13] the target is DNA topoisomerase 4 subunit A (Staphylococcus aureus) (UniProt P0C1U9). The source holds these as a separate data set.
Another series has as its system Klebsiella pneumoniae. Kind of series: Minimum inhibitory concentration against Klebsiella pneumoniae ATCC 10031. Format: functional.
Series [14] concerns Staphylococcus saprophyticus. Kind of series: Minimum inhibitory concentration against Staphylococcus saprophyticus ATCC 15305. Format: functional.
The next series relates to Enterococcus faecalis. Kind of series: Minimum inhibitory concentration against Enterococcus faecalis ATCC 29212. The format is functional.
The subject of another series is Escherichia coli. The experiment in a line: microbe, parasite or virus in culture. The note with it: ATCC 25922.
In another series the test system is Streptococcus sanguinis. The experiment in a line: Minimum inhibitory concentration against Streptococcus sanguis ATCC 10556. Format: functional.
The subject of a further series is Pseudomonas aeruginosa. The experiment in a line: microbe, parasite or virus in culture. Particulars: ATCC 27853.
Another series deals with Streptococcus pyogenes. The experiment in a line: Minimum inhibitory concentration against Streptococcus pyogenes ATCC 19615. The format is functional.
Series [15] relates to Staphylococcus aureus. Kind of series: Minimum inhibitory concentration against Staphylococcus aureus ATCC 25923. The format is functional.
The subject of the next series is Phocaeicola vulgatus. The experiment in a line: Minimum inhibitory concentration against Bacteroides vulgatus ATCC 29327. The format is functional.
For series [16], the system named is Staphylococcus aureus. The experiment in a line: Frequency of resistance emergence for methicillin resistant Staphylococcus aureus-33. Format: functional.
The subject of series [17] is Staphylococcus aureus. The experiment in a line: Frequency of resistance emergence for methicillin resistant Staphylococcus aureus-5023. The format is functional.
The test system of series [18] is Mus musculus. Kind of series: Efficacy against mice infected with Staphylococcus aureus ATCC 25923 upon s.c. administration. The format is functional. The note with it: sc.
For series [19], the system named is Staphylococcus aureus. Kind of series: Minimum inhibitory concentration against vancomycin intermediate Staphylococcus aureus MU 3. The format is functional.
For series [20], the system named is Staphylococcus aureus. Kind of series: Mutant prevention concentration against methicillin resistant Staphylococcus aureus-32 done for 48 h at 37 degree C with compound. Format: functional.
Series [21] has as its system Staphylococcus aureus. Kind of series: Frequency of resistance emergence for methicillin resistant Staphylococcus aureus-32. The format is functional.
For series [22], the system named is Staphylococcus aureus. Kind of series: microbe, parasite or virus in culture.
The subject of series [23] is Staphylococcus aureus. Kind of series: microbe, parasite or virus in culture. The source holds these as a separate data set.
For series [24], the system named is Mus musculus. The experiment in a line: Efficacy against mice infected with MRSA-33 upon s.c. administration. Format: functional. Particulars: sc.
For series [25], the system named is Staphylococcus aureus. The experiment in a line: microbe, parasite or virus in culture. The source holds these as a separate data set.
Series [26] concerns Staphylococcus aureus. Kind of series: microbe, parasite or virus in culture. The source holds these as a separate data set.
Series [27] deals with Staphylococcus aureus. The experiment in a line: Mutant prevention concentration aganist methicillin resistant Staphylococcus aureus-33 done for 48 hr at 37 degree C with compound. Format: functional.
Series [28] has as its system Mus musculus. Kind of series: Efficacy against mice infected with MRSA-32 upon s.c. administration. Format: functional. Particulars: MRSA-32, sc.
Series [29] deals with Staphylococcus aureus. The experiment in a line: Mutant prevention concentration aganist methicillin resistant Staphylococcus aureus-5023 done for 48 hr at 37 degree C with compound. The format is functional.

The structures appear in SMILES notation. In brackets after ≈: the same amount, converted by molar mass.

Sequence of DNA topoisomerase 4 subunit A (Staphylococcus aureus) (P0C1U9 whole entry): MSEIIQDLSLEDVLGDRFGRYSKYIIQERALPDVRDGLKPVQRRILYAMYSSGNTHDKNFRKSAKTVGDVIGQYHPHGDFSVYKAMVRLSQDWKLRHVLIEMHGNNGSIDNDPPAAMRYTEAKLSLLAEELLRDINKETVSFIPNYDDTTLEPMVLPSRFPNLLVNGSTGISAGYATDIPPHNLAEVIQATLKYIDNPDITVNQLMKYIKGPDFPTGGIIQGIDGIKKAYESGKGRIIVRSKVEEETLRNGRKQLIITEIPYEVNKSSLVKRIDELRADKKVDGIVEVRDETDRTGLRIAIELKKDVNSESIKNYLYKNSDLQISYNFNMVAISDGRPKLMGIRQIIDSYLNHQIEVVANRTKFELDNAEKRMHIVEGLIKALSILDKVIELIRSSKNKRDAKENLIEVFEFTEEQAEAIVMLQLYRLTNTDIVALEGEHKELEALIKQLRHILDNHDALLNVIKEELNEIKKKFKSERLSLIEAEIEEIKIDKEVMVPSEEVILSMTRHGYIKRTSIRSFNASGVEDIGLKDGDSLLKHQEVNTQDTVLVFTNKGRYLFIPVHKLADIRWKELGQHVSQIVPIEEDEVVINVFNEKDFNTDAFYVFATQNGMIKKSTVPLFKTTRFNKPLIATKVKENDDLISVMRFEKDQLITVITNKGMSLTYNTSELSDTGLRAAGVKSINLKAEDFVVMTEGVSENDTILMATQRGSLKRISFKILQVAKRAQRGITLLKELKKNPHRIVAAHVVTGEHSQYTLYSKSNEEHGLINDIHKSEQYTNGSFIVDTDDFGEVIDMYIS
T1 sequence (P0A0K8 2-644 limits assumed): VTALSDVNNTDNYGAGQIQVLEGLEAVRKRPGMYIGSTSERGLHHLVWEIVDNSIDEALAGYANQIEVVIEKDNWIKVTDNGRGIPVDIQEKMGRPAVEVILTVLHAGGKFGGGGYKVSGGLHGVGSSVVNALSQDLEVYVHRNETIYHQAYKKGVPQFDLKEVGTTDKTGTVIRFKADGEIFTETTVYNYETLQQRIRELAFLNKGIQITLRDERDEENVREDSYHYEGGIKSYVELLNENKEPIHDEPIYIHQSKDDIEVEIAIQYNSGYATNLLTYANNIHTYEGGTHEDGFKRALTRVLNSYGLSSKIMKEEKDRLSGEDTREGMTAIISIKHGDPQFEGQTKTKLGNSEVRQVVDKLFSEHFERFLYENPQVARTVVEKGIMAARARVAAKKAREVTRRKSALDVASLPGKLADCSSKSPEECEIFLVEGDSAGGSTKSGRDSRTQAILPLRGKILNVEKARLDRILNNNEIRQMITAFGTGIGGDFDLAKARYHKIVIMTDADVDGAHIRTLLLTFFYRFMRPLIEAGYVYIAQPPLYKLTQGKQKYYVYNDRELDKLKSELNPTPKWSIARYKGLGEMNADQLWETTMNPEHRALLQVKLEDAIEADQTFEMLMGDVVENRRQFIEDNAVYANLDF
T1 sequence (P20831 whole entry partner): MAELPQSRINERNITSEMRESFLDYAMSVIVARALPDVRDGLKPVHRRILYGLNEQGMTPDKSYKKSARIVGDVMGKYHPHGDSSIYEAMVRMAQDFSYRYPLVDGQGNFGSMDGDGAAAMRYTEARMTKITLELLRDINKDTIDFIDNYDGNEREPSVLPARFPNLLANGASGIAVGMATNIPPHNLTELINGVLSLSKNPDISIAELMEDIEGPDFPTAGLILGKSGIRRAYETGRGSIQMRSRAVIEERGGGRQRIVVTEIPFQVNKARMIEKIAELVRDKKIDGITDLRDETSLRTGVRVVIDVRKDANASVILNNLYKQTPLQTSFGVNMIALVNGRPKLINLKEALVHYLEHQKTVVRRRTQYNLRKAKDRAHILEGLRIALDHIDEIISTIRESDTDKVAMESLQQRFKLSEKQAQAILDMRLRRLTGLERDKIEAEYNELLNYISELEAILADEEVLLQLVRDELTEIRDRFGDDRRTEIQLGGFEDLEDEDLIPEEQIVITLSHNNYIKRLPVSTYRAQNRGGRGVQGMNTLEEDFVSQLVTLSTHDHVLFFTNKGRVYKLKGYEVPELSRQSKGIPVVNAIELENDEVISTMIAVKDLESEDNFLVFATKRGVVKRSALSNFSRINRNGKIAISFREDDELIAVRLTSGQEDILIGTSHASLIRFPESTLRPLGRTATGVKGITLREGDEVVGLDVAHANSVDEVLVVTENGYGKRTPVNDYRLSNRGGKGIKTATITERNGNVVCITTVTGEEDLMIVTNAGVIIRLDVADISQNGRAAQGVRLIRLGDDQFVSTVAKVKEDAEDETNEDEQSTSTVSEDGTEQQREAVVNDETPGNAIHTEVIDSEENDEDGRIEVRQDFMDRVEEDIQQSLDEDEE
Sequence of DNA gyrase (P0A0K8 whole entry): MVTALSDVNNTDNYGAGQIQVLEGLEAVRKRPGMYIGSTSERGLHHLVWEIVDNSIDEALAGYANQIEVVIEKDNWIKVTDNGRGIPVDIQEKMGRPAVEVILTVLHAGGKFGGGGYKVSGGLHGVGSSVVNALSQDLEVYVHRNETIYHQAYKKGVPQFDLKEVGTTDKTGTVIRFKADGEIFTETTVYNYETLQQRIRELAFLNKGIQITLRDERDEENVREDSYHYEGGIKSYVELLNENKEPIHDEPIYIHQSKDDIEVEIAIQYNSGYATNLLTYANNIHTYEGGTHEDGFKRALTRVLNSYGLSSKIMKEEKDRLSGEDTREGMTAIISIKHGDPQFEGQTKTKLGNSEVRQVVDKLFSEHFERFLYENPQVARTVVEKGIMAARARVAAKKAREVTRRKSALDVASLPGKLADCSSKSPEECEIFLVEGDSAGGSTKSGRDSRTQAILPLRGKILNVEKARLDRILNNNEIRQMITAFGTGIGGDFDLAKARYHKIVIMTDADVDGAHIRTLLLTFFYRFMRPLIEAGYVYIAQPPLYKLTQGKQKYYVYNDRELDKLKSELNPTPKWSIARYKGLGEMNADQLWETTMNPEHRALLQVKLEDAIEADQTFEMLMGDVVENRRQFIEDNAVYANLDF
Sequence of DNA gyrase (P20831 whole entry): as the sequence (P20831 whole entry partner) above
Sequence of DNA topoisomerase 4 subunit A (P0C1U9 whole entry): as the sequence (P0C1U9 whole entry) above

As for `C[C@H]1CCc2c(N3CCC(O)CC3)c(F)cc3c(=O)c(C(=O)O)cn1c23` [LEVONADIFLOXACIN], the MIC in the series with Staphylococcus aureus [1] came to 0.03 µg/mL (≈ 0.0832 µM). Also, the ED50 in the series on Mus musculus [2] was 24.8 mg/kg; in the series on Mus musculus [3], 62.3 mg/kg.

Turning to `CC1CCc2c(N3CCC(O)CC3)c(F)cc3c(=O)c(C(=O)O)cn1c23` (stereo not given) [NADIFLOXACIN], the MIC in the series with Staphylococcus aureus [4] amounted to 32 µg/mL (≈ 88.8 µM); against Staphylococcus aureus [7], 0.25 µg/mL (≈ 0.694 µM); in the series on Staphylococcus aureus [8], 1 µg/mL (≈ 2.77 µM); in the series on Staphylococcus aureus [9], 1 µg/mL (≈ 2.77 µM). Besides, the figures for the CC50 in series [5] and in series [10] were over 10 µg/mL and 25 µg/mL (≈ 69.4 µM), respectively. The molecule further registered a pKa in the series “physchem” of 6.8. In addition, the values for the IC50 (in series [6]; against DNA gyrase) were over 27.7 µM and 27.7 µM, respectively.

For `O=C(O)c1cn(C2CC2)c2cc(N3CCNCC3)c(F)cc2c1=O` [CIPROFLOXACIN], the CC50 in series [11] is 50 µg/mL (≈ 151 µM); in series [13] it was 2.5 µg/mL (≈ 7.54 µM). Further, the MIC is 0.25 µg/mL (≈ 0.754 µM) in [12]; 2 µg/mL (≈ 6.04 µM) in the series with Streptococcus agalactiae; under 0.008 µg/mL with Klebsiella pneumoniae; 0.5 µg/mL (≈ 1.51 µM) in [14]; 2 µg/mL (≈ 6.04 µM) with Enterococcus faecalis; under 0.008 µg/mL in the series with Escherichia coli. In addition, the MIC against Streptococcus sanguinis came to 2 µg/mL (≈ 6.04 µM); with Staphylococcus aureus [8], 1 µg/mL (≈ 3.02 µM); against Pseudomonas aeruginosa it was 1 µg/mL (≈ 3.02 µM); in the series on Streptococcus pyogenes, 0.5 µg/mL (≈ 1.51 µM); against Staphylococcus aureus [15], 1 µg/mL (≈ 3.02 µM); in the series with Phocaeicola vulgatus, 8 µg/mL (≈ 24.1 µM).

In the case of `COc1c(N2C[C@@H]3CCCN[C@@H]3C2)c(F)cc2c(=O)c(C(=O)O)cn(C3CC3)c12` [MOXIFLOXACIN], the results for the FRE with Staphylococcus aureus [16], in the series on Staphylococcus aureus [17] and in the series on Staphylococcus aureus [21] were 2.1e-06, 3.1e-05 and 4.51e-05, respectively. Moreover, the MIC came to 0.06 µg/mL (≈ 0.149 µM) in series [12]; 4 µg/mL (≈ 9.96 µM) in the series with Staphylococcus aureus [19]; 0.12 µg/mL (≈ 0.299 µM) in the series on Streptococcus agalactiae; 0.008 µg/mL (≈ 0.0199 µM) against Klebsiella pneumoniae; 0.25 µg/mL (≈ 0.623 µM) in [14]; 0.25 µg/mL (≈ 0.623 µM) against Enterococcus faecalis. Further, the MIC in the series with Staphylococcus aureus [22] came out at 2 µg/mL (≈ 4.98 µM); in the series with Staphylococcus aureus [23], 2 µg/mL (≈ 4.98 µM); in the series with Streptococcus sanguinis, 0.5 µg/mL (≈ 1.25 µM); in the series with Staphylococcus aureus [25] it was 4 µg/mL (≈ 9.96 µM); with Staphylococcus aureus [26], 2 µg/mL (≈ 4.98 µM); in the series on Pseudomonas aeruginosa it was 4 µg/mL (≈ 9.96 µM). The MIC in the series on Streptococcus pyogenes was found to be 0.25 µg/mL (≈ 0.623 µM); in the series with Staphylococcus aureus [15] it was 0.06 µg/mL (≈ 0.149 µM); against Phocaeicola vulgatus it was 0.5 µg/mL (≈ 1.25 µM). Further, the results for the ED50 in the series with Mus musculus [18], in the series on Mus musculus [24] and in the series with Mus musculus [28] were 0.6 mg/kg, 66.1 mg/kg and 30 mg/kg, respectively. In addition, the MPC with Staphylococcus aureus [20], with Staphylococcus aureus [27] and with Staphylococcus aureus [29] was 10 µg/mL throughout.

In general, ED50 refers to the dose at which the effect has come halfway, by size or by number of responders. As a reminder, the pKa is the negative logarithm of the acid dissociation constant. Low readings indicate a group that gives up its proton readily, high ones a group that holds its proton tightly. As usually defined, the IC50 is the concentration that gives 50% inhibition. Read a low IC50 as greater potency in that assay.
